What was measured:
[1] = system: TNF-α release in THP-1 cells; test: SYK dependent TNF-α release assay (IgG stimulation); assay type: cell-based, human
Description: Compounds of the present invention are tested for their effects on TNF-α release in human acute monocytic leukimia cell line (THP-1) to illustrate potential efficacy at the cellular level. TNF-α is a cytokine involved in systemic inflammation and is a member of a group of cytokines that stimulate the acute phase reaction. The primary role of TNF-α is in the regulation of immune cells. TNF-α is known to induce apoptotic cell death and inflammation and to inhibit early tumorigenesis and viral replication. Dysregulation and, in particular, overproduction of TNF-α have been implicated in a variety of human diseases, autoimmune disease, inflammation, arthritis and cancer.
Production or release of TNF-α is controlled by type of stimulus to which the cell responds. SYK activity is involved in mediating TNF-α production. When stimulated by IgG, cells increase TNF-α production in a SYK dependent manner (i.e., the SYK dependent pathway). However, when stimulated by lipopolysaccharide (LPS), they produce TNF-α in a SYK independent manner.
Compounds of the invention were tested for their TNF-α release effect on THP-1 cells. For SYK dependent TNF-α release assay (i.e., via IgG stimulation), THP-1 cells derived from human monocytic cells were obtained from the American Type Culture Collection (ATCC, Manassas, Va.). This cell line was maintained with an Roswell Park Memorial Institute (RPMI) medium (GIBCO™) containing 10 fetal bovine serum (FBS; GIBCO™) and 0.05 mM 2-mercaptoethanol. The THP-1 cells were seeded at 1×10^5 cells/100 μL/well into human IgG (10 μg/well, INVITROGENT™)-coated 96 well culture plate, and serially diluted compound was then added. After an 18-hour incubation period at 37° C., supernatants were collected for the determination of the TNF-α level by enzyme-linked immunosorbent assay (ELISA), and the remaining cells were subjected to an MTT (yellow tetrazolium salt) assay to determine the cytotoxic effects of compound.

[2] = target: T1, FAK (Homo sapiens, UniProt Q05397); test: Kinase inhibition assay: FAK; assay type: biochemical; conditions: at 1 μM concentration
T1 construct: truncated human FAK, RET, FLT3, JAK2, and LRRK2; purchased Carna Biosciences
T1 sequence (Q05397 376-1052 limits assumed): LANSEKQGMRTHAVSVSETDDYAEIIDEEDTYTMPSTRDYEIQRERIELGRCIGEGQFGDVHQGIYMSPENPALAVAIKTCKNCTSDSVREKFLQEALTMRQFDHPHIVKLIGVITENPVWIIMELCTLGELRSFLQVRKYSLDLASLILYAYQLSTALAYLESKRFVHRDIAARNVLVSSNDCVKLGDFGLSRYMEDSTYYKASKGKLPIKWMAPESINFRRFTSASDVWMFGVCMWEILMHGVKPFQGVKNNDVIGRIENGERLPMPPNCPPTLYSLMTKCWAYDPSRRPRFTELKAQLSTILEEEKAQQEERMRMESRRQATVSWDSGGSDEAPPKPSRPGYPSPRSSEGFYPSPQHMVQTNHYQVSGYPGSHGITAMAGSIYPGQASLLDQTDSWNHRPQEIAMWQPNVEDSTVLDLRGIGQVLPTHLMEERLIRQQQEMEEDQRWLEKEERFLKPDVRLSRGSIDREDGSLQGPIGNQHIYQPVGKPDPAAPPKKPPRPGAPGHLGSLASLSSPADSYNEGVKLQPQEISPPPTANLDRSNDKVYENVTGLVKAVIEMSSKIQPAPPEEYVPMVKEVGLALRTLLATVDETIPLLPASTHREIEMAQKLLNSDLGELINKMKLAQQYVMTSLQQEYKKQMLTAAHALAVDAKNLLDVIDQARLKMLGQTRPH
Description: (§1) Compounds of the present invention were tested for their capacity to inhibit a kinase panel which includes, but are not limited to, spleen tyrosine kinase (SYK), zeta-chain-associated protein kinase 70 (ZAP70), PTK2B protein tyrosine kinase 2 (PYK2), focal adhesion kinase (FAK), provirus integration of maloney kinase 1 (PIM1), rearranged during transfection kinase (RET), Fms-like tyrosine kinase 3 (FLT3), Janus kinase 2 (JAK2), and leucine-rich repeat kinase 2 (LRRK2).
(§2) Inhibition of SYK, ZAP70, PYK2, FAK, PIM1, RET, FLT3, JAK2 and LRRK2 Kinase Activity
Compounds of the invention were initially diluted to 10 mM in 100% DMSO (CALBIOCHEM™) for storage and made into kinase buffer solution to create a compound concentration ranging from 1 uM and 10 uM. Serial dilutions of compounds of the invention were dispensed into a 96-well plate (GREINER BIOSCIENCES™) at 6 μL each. Purified full-length human SYK, ZAP70, PIM1, PYK2 and truncated human FAK, RET, FLT3, JAK2, and LRRK2 (CARNA BIOSCIENCES™) were diluted in kinase buffer and added to the compound solutions and pre-incubated for 30 minutes at room temperature (1 hour for PYK2). […] The reaction mixture was incubated for 1 hour (2 hours for PYK2). Following the incubation, the stop solution made with EDTA, water, and Lance detection buffer ([…]™) was added (12μL each) to stop phosphorylation. […] The IC50 value of test compound was calculated at Gradpad Prism 5 unless specified otherwise.

[3] = target: T2, PIM1 (Homo sapiens, UniProt P11309); test: Kinase inhibition assay: PIM1; assay type: biochemical; conditions: at 1 μM concentration
T2 construct: Purified full-length human SYK, ZAP70, PIM1, PYK2; purchased Carna Biosciences
T2 sequence (P11309 whole entry): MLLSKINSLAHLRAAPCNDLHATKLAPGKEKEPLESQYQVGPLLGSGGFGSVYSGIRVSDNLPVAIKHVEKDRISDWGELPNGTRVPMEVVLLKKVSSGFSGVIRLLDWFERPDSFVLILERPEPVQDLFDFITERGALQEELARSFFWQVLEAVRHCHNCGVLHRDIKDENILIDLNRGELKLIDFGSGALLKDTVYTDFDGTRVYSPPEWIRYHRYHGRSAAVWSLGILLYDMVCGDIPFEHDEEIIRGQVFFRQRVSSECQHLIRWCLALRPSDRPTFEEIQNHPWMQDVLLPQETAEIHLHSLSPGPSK
Description: as §1, §2
Compounds of the invention were initially diluted to 10 mM in 100% DMSO (CALBIOCHEM™) for storage and made into kinase buffer solution to create a compound concentration ranging from 1 uM and 10 uM. Serial dilutions of compounds of the invention were dispensed into a 96-well plate (GREINER BIOSCIENCES™) at 6 μL each. Purified full-length human SYK, ZAP70, PIM1, PYK2 and truncated human FAK, RET, FLT3, JAK2, and LRRK2 (CARNA BIOSCIENCES™) were diluted in kinase buffer and added to the compound solutions and pre-incubated for 30 minutes at room temperature (1 hour for PYK2). […] The reaction mixture was incubated for 1 hour (2 hours for PYK2). Following the incubation, the stop solution made with EDTA, water, and Lance detection buffer ([…]™) was added (12μL each) to stop phosphorylation. […] Substrate phosphorylation was a function of the 665 nm emission measured following the addition of the detection solution and 50 minutes of incubation. The IC50 value of test compound was calculated at Gradpad Prism 5 unless specified otherwise.

[4] = system: HEL cells; test: Cell viability assay: JAK2 inhibition; assay type: cell-based, human
Description: Compounds of the invention are tested for their effects on JAK2 inhibition in human erythroleukemic cell line (HEL) to illustrate potential efficacy at the cellular level. The Janus-associated kinase (JAK) family, comprised of four different protein tyrosine kinases JAK1, JAK2, JAK3, and TYK2, plays an important role in cellular survival, proliferation, and differentiation. V617F, a unique mutation in the JAK2 gene (a valine-to-phenylalanine substitution) results in constitutive kinase activity and promotes deregulated hematopoiesis. JAK2 V617F is frequently detected in myeloproliferative disorders (MPDs), a group of clonal hematopoietic stem cell disorders that include polycythemia vera (PV), essential thrombocythemia (ET), and idiopathic myelofibrosis (IMF), all of which have the potential to transform to acute myeloid leukemia. JAK2 V617F is constitutively phosphorylated and able to activate downstream signaling in the absence of cytokine stimulation.
Compounds of the present invention were tested for their effects on viability of HEL cells. For cell viability assay, HEL cells expressing human JAK2 V617F were obtained from the American Type Culture Collection (ATCC, Manassas, Va.). This cell line was maintained with Roswell Park Memorial Institute (RPMI) medium (HyClone™) containing 10 bovine calf serum (BCS; Hyclone™) supplemented iron. The HEL cells were seeded at 2×10^4 cells in 96 well culture plates, and serially diluted compound was then added. After a 72-hour incubation period at 37° C., viability of cells was measured using the ATPLite 1 step assay (Perkin-Elmer™) that is based on the quantification of ATP from viable cells. CellTiter Aqueous assay (Promega™) was also performed in parallel as an orthogonal assay. IC50 values were calculated using nonlinear regression and defined as the concentration needed for a 50 reduction in luminescence or absorbance treated versus untreated control cells (Prism™ Software).

Row | Structure (SMILES) | inhibition at 0.3 µM ([1]; Homo sapiens, THP-1 cells, IgG stimulation, 0.3 μM, 18-hour incubation) [%] | inhibition at 1 µM ([1]; Homo sapiens, THP-1 cells, IgG stimulation, 1 μM, 18-hour incubation) [%] | percentage inhibition of TNF-α release compared with R406 ([1]; IgG stimulated release, 0.3 μM) | inhibition at 1 µM [2] [%] | inhibition at 1 µM [3] [%] | inhibition level compared with Sorafenib ([4]; HEL) | IC50 ([4]; Homo sapiens, 72-hour incubation, HEL cells expressing JAK2 V617F, read-out: Cell Viability: JAK2 kinase Inhibition HEL (IC50 nM)) [nM]
1 | Cc1cc(C)cc(Nc2ncc(F)c(-n3cc(C)c(CN4CC[C@@H](O)C4)c3)n2)c1 [Compound 82, (R)-1-((1-(2-(3,5-dimethylphenyl-amino)-5-fluoropyrimidin-4-yl)-4-methyl-1H-pyrrol-3-yl)methyl) pyrrolidin-3-ol] | 49.2 | 91.4 | greater that those exhibited by R406 | – | – | – | –
2 | COc1cc(Nc2ncc(C)c(-n3cc(C)c(CO)c3)n2)cc(OC)c1OC [Compound 21, (4-methyl-1-(5-methyl-2-(3,4,5-trimethoxyphenylamino)pyrimidin-4-yl)-1H-pyrrol-3-yl)methanol] | – | – | – | 70.7 | 71.2 | greater than those exhibited by Sorafenib | 144
